Assay [1] addresses cAMP-dependent protein kinase catalytic subunit alpha (Homo sapiens) (UniProt P17612). As to the kind of experiment: Inhibition of human recombinant PKACalpha at 40 nM related to control ULK1.
Assay [2] concerns the target T1, Serine/threonine-protein kinase ULK1 (Homo sapiens) (UniProt O75385).
T1 sequence (whole entry): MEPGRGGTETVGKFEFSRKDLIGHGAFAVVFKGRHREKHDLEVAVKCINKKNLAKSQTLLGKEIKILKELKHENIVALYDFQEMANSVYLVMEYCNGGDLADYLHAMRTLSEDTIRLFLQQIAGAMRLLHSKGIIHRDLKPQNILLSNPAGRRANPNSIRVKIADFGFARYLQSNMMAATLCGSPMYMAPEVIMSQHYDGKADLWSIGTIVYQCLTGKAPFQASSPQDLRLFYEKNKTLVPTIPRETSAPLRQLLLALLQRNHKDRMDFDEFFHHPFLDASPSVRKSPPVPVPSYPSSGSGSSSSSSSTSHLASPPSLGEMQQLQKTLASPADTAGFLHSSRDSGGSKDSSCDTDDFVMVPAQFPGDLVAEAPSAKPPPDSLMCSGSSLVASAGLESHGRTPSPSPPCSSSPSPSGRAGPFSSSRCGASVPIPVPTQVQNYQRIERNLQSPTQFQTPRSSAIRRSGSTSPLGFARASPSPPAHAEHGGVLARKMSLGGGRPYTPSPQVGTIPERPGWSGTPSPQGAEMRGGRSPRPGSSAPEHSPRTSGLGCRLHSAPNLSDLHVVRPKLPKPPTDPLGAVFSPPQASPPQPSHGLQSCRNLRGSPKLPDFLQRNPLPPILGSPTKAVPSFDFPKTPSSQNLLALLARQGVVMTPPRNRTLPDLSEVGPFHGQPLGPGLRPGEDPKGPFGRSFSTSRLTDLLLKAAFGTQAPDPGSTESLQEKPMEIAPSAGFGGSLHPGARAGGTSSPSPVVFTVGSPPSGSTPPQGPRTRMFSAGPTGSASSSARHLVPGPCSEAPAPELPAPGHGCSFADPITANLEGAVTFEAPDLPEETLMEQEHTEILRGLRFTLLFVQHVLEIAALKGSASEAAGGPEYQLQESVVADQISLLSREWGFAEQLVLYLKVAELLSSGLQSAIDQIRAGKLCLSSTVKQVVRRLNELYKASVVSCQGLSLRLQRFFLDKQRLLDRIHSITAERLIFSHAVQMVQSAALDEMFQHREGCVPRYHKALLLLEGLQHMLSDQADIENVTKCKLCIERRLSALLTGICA
As to the kind of experiment: Inhibition of ULK1 phosphorylation at Ser15 residue in HEK293 cells incubated for 1 hr by chemiluminescence based immunoblotting analysis. Format: cell-based. To be noted: HEK293T, dose <= 20.0 µM. For orientation: In western blotting, separated proteins are transferred to a membrane and probed.

Assay [3] has as its target T2, Serine/threonine-protein kinase ULK2 (Homo sapiens, UniProt Q8IYT8).
T2 sequence (Q8IYT8 whole entry): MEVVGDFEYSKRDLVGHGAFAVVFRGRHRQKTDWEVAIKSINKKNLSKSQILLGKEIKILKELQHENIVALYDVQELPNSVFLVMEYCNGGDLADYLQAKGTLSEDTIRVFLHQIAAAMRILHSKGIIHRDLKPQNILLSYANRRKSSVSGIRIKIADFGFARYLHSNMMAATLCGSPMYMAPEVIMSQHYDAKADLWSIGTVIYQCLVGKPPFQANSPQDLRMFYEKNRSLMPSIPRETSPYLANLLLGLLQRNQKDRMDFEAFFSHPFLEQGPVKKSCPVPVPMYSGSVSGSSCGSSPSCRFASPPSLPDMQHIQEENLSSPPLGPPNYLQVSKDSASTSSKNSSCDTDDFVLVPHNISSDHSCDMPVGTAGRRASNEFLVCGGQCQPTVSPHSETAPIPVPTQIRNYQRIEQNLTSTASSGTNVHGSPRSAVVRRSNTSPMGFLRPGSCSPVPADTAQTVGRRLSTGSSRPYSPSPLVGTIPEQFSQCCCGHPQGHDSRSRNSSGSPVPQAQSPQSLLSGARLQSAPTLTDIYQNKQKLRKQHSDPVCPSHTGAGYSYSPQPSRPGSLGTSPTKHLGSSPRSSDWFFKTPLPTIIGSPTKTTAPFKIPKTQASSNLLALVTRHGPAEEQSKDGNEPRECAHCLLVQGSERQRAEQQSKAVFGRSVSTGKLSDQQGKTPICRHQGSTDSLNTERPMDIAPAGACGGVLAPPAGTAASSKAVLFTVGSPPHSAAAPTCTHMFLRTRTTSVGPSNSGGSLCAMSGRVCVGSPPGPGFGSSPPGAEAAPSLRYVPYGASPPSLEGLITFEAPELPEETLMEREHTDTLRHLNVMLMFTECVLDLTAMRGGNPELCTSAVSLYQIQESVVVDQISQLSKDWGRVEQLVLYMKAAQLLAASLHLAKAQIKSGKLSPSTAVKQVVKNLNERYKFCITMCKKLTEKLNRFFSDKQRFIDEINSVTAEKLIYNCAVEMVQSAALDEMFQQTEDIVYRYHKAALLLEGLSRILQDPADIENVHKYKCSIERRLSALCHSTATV
As to the kind of experiment: Inhibition of human ULK2.

Assay [4] addresses Maternal embryonic leucine zipper kinase (Homo sapiens) (UniProt Q14680). As to the kind of experiment: Inhibition of human recombinant MELK at 15 nM related to control ULK1.
Assay [5] concerns the target STE20-like serine/threonine-protein kinase (Homo sapiens) (UniProt Q9H2G2). As to the kind of experiment: Inhibition of human recombinant SLK at 15 nM in presence of ATP by radiometric assay relative to control.

Sequence of STE20-like serine/threonine-protein kinase (Homo sapiens) (Q9H2G2 whole entry, looked up): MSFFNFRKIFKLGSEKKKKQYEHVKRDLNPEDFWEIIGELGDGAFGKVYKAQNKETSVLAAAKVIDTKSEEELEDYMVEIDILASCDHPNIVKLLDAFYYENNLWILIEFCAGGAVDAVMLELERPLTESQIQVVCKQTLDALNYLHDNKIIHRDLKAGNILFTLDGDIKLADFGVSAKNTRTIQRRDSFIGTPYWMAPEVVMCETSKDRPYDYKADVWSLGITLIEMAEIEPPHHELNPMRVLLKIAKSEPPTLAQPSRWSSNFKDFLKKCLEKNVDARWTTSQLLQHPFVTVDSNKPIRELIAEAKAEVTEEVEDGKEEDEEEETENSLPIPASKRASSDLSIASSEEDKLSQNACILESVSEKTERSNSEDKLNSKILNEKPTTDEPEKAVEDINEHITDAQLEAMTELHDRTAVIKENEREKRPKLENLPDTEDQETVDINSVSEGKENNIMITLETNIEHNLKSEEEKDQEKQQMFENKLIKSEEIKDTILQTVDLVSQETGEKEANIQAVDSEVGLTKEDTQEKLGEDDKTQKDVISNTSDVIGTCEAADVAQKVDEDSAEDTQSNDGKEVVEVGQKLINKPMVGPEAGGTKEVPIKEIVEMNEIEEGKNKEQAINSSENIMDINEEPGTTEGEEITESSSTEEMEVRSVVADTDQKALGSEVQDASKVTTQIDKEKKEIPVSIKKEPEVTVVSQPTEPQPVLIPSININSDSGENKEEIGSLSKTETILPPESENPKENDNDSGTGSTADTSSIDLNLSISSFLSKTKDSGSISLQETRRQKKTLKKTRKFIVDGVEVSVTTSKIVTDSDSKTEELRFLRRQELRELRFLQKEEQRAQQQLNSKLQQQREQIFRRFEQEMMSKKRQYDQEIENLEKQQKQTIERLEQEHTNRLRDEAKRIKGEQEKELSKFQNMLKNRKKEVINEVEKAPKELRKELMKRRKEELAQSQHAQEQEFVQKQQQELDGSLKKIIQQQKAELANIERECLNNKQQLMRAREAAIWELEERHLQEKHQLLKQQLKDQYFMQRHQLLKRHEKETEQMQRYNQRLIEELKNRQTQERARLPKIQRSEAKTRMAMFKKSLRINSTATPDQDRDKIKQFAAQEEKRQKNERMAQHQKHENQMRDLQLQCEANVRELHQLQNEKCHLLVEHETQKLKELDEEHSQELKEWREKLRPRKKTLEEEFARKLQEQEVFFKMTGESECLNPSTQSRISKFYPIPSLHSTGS
Sequence of Maternal embryonic leucine zipper kinase (Homo sapiens) (Q14680 whole entry, looked up): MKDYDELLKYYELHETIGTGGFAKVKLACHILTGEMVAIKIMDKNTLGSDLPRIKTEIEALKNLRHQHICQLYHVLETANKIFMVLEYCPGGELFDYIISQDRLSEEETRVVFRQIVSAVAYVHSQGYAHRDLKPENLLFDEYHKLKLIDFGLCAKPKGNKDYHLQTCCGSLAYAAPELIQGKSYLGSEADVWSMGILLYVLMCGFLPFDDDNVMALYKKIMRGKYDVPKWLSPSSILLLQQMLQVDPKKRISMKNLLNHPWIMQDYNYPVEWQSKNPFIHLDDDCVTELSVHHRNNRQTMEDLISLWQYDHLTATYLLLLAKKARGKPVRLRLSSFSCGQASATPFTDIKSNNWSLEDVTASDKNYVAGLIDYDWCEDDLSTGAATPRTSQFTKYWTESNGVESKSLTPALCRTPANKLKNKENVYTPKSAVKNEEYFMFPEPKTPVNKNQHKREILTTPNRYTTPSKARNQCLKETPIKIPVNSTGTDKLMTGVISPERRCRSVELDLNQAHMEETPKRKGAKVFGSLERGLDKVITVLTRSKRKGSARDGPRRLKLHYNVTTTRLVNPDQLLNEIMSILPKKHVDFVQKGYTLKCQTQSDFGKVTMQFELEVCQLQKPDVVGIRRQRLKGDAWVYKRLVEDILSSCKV

Take `O=C(N[C@@H](C1CC1)C(F)(F)F)c1cc(-c2cnn3cc(-c4ccc(F)cc4)cnc23)cs1`: the fold change (FC) in assay [1] came out at 0. For the same compound, in assay [2], the inhibition – broadly, the change of the read-out against control, counted positive when it falls – was “Dose-Dependent Effect”. Moreover, the IC50 (usually the concentration that gives 50% inhibition) in assay [3] was found to be 30 nM.

On to `CNC(=O)c1ccccc1Oc1nc(Nc2cc(OC)c(OC)c(OC)c2)ncc1Br`, for which the inhibition result in assay [2] is “Dose-Dependent Effect”. The compound further gave an IC50 in assay [3] of 212 nM.

Consider `CC(C)[C@H](NC(=O)c1cc(-c2cnn3cc(-c4ccc(OCCN5CCCCC5)cc4)cnc23)cs1)C(F)(F)F`, for which the fold change (FC) in assay [4] was found to be 0.76. Further, the inhibition in assay [5] is 22%; in assay [2], “Dose-Dependent Effect”. The compound further had an IC50 in assay [3] of 2.6 nM.
